For 32 molecules, EC50 and IC50 results are on record in patent US9877962B2, “Piperazinyl derivatives for the treatment of cancer” (priority 2011, dated 2018).

Assay type in all cases: cell-based, human
For one test, the system named is MCF-7/adr. In words: Cytotoxicity test (ViaLight Plus cell proliferation) on MCF-7/adr. To be noted: adriamycin-resistant line, 72 hours' incubation, cell viability vs 0.5% DMSO control. The text has this:
(§1) The effects of the compounds of the invention on the proliferation of cancer cells were studied on different human cancer cell lines of different tissue origin (MCF-7: breast cancer, MCF-7/adr adriamycin-resistant breast cancer, HL-60: acute promyelocytic leukaemia, HL-60/R10: doxorubicin-resistant acute promyelocytic leukaemia, HT29: colon adenocarcinoma, Mia Paca2: pancreatic tumour, Panc-1: pancreatic exocrine tumour, SK-OV-3: cisplatin- and adriamycin resistant ovarian cancer). The cancer cells used for this study were incubated at 37° C. in the presence of one of the compounds of the invention added to the culture medium at different concentrations.
(§2) The cancer cell lines were obtained from ATCC (American Type Culture Collection) for MCF-7, from Hôpital de la Pitié Salpetrière for MCF-7/adr and from Oncodesign (Dijon, France) for HL-60, HL-60/R10, HT29, MiaPaCa2, Panc-1 and SK-OV-3. They were cultured in RPMI 1640 medium containing 2 mM L-Glutamine supplemented with 10% foetal calf serum (Lonza; Verviers, Belgium). All the cell lines were held in culture at 37° C. in a humid atmosphere containing 5% CO2. Cell proliferation was assessed using the ViaLight® Plus Assay Kit (Lonza; Verviers, Belgium) following the manufacturer's instructions. The cells were seeded in 96-well culture plates compatible with luminescence read-off (white plates with transparent bottom) in a proportion of 5 000 to 10 000 cells per well in 100 μl of culture medium. After a pre-incubation time of 24 hours at 37° C., the compounds of the invention dissolved in dimethylsulfoxide (DMSO) were individually added to each well in a proportion of 0.5 μl per well. After 72 hours' incubation at 37° C. in a humid atmosphere containing 5% CO2, 50 μl of lysis buffer were added to each well and 15 minutes later 100 μl of ATP measuring agent were added. The plates were read under a luminometer to evaluate cell viability. The data obtained was processed by computer to obtain the EC50 value i.e. the concentration value of each of the compounds which induces 50% cell viability compared with a control value (0.5% DMSO alone).

In a further test the test system is HL-60/R10. In words: Cytotoxicity test (ViaLight Plus cell proliferation) on HL-60/R10. The conditions noted are these: doxorubicin-resistant line, 72 hours' incubation, cell viability vs 0.5% DMSO control, read-out: EC50 HL60/R10; for IC50: Homo sapiens.
Excerpt: as §1, §2

Another test deals with HL-60. Kind of test: Cytotoxicity test (ViaLight Plus cell proliferation) on HL-60. The conditions noted are these: 72 hours' incubation, cell viability vs 0.5% DMSO control; for IC50: Homo sapiens, read-out: EC50 HL-60.
Excerpt: as §1, §2

Like-named read-outs stand apart in the source and are kept apart here.

Consider `CC[C@@H]1CN(C(=O)C(c2ccc(F)cc2)N(C(=O)CCl)c2ccc(Oc3ccccc3)cc2C)CCN1C(=O)OC(C)(C)C` (single isomer, unassigned; dia1) [I-16 dia1], for which the EC50 stood at 527 nM in the test with MCF-7/adr, 450 nM in the test with HL-60/R10 and 1480 nM in the test with HL-60.

With `CC[C@H]1CN(C(=O)C(c2ccc(F)cc2)N(C(=O)CCl)c2ccc(Oc3ccccc3)cc2C)CCN1` (single isomer, unassigned; dia1) [I-17 dia1], the EC50 in the test on MCF-7/adr was determined as 898 nM; with HL-60/R10, 353 nM; in the test on HL-60, 2310 nM.

As for `CC[C@@H]1CN(C(=O)C(c2ccc(F)cc2)N(C(=O)CCl)c2ccc(Oc3ccccc3)cc2C)CCN1` (single isomer, unassigned; dia1) [I-18 dia1], the EC50 with MCF-7/adr amounted to 485 nM; with HL-60/R10, 140 nM; in the test with HL-60 it was 1600 nM.

Consider `CC[C@H]1CN(C(=O)C(c2ccc(F)cc2)N(C(=O)CCl)c2ccc(Oc3ccccc3)cc2)CCN1C(=O)OC(C)(C)C` (single isomer, unassigned; dia1) [I-19 dia1], for which the results for the EC50 in the test with MCF-7/adr, in the test on HL-60/R10 and in the test with HL-60 were 128 nM, 97 nM and 516 nM, respectively.

`Cc1cc(CCC(C)(C)C)ccc1N(C(=O)CCl)C(C(=O)N1CCNC(C(C)C)C1)c1ccc(F)cc1` (single isomer, unassigned; dia1) [I-25 dia1]: the EC50 in the test with HL-60/R10 amounted to 43 nM; in the test with HL-60 it was 1120 nM.

As for `Cc1cc(Oc2ccccc2)ccc1N(C(=O)CCl)C(C(=O)N1CCN(C(=O)OC(C)(C)C)[C@H](C)C1)c1cccs1` (single isomer, unassigned; dia1) [I-40 dia1], the EC50 with MCF-7/adr amounted to 371 nM; in the test with HL-60/R10, 248 nM; with HL-60 it was 2130 nM.

Turning to `Cc1cc(Oc2ccccc2)ccc1N(C(=O)CCl)C(C(=O)N1CCN[C@@H](C(C)C)C1)c1cccs1` (single isomer, unassigned; dia1) [I-46 dia1], the EC50 came out at 544 nM with MCF-7/adr and 318 nM in the test on HL-60/R10.

With `Cc1cc(Oc2ccccc2)ccc1N(C(=O)CCl)C(C(=O)N1CCN[C@@H](CC(C)C)C1)c1cccs1` (single isomer, unassigned; dia1) [I-47 dia1], the EC50 in the test with HL-60/R10 was 54 nM; in the test on HL-60 it was 936 nM.

Consider `CC(C)[C@H]1CN(C(=O)C(c2cccs2)N(C(=O)CCl)c2cccc(C(F)(F)F)c2)CCN1` (single isomer, unassigned; dia1) [I-50 dia1], for which the EC50 is 259 nM in the test with HL-60/R10 and 2100 nM with HL-60.

On to `CC(C)C[C@H]1CN(C(=O)C(c2cccs2)N(C(=O)CCl)c2ccc(Oc3ccccc3)cc2)CCN1` (single isomer, unassigned; dia1) [I-51 dia1], for which the values for the EC50 in the test on HL-60/R10 and in the test with HL-60 were 96 nM and 145 nM, respectively.

For `Cc1cc(Cl)ccc1N(C(=O)CCl)C(C(=O)N1CCN[C@@H](C(C)C)C1)c1cccs1` (single isomer, unassigned; dia1) [I-52 dia1], the EC50 in the test with HL-60/R10 worked out at 194 nM.

For the molecule `CC[C@@H]1CN(C(=O)C(c2ccc(F)cc2)N(C(=O)CCl)c2ccc(Oc3ccccc3)cc2C)CCN1C(=O)OC(C)(C)C` (single isomer, unassigned; dia2) [I-16 dia2], the EC50 with MCF-7/adr turned out to be 443 nM; in the test with HL-60/R10, 317 nM; in the test with HL-60, 1910 nM.

For `CC[C@H]1CN(C(=O)C(c2ccc(F)cc2)N(C(=O)CCl)c2ccc(Oc3ccccc3)cc2)CCN1C(=O)OC(C)(C)C` (single isomer, unassigned; dia2) [I-19 dia2], the EC50 is 35 nM in the test with MCF-7/adr, 24 nM in the test on HL-60/R10 and 453 nM with HL-60.

With `CC[C@@H]1CN(C(=O)C(c2ccc(F)cc2)N(C(=O)CCl)c2ccc(Oc3ccccc3)cc2)CCN1C(=O)OC(C)(C)C` (single isomer, unassigned; dia2) [I-20 dia2], the values for the EC50 with MCF-7/adr, in the test with HL-60/R10 and in the test on HL-60 were 165 nM, 139 nM and 1480 nM, respectively.

As for `Cc1cc(CCC(C)(C)C)ccc1N(C(=O)CCl)C(C(=O)N1CCNC(C(C)C)C1)c1ccc(F)cc1` (single isomer, unassigned; dia2) [I-25 dia2], the EC50 in the test on HL-60/R10 is 103 nM; with HL-60 it was 819 nM.

Take `Cc1cc(Oc2ccccc2)ccc1N(C(=O)CCl)C(C(=O)N1CCN(C(=O)OC(C)(C)C)[C@H](C)C1)c1cccs1` (single isomer, unassigned; dia2) [I-40 dia2]: the EC50 worked out at 827 nM with MCF-7/adr and 487 nM in the test on HL-60/R10.

Take `Cc1cc(Oc2ccccc2)ccc1N(C(=O)CCl)C(C(=O)N1CCN[C@@H](CC(C)C)C1)c1cccs1` (single isomer, unassigned; dia2) [I-47 dia2]: the values for the EC50 in the test with HL-60/R10 and in the test with HL-60 were 8 nM and 849 nM, respectively.

Take `CC(C)C[C@H]1CN(C(=O)C(c2cccs2)N(C(=O)CCl)c2ccc(Oc3ccccc3)cc2)CCN1` (single isomer, unassigned; dia2) [I-51 dia2]: the EC50 came to 1 nM in the test with HL-60/R10 and 3 nM with HL-60.

In the case of `Cc1cc(Cl)ccc1N(C(=O)CCl)C(C(=O)N1CCN[C@@H](C(C)C)C1)c1cccs1` (single isomer, unassigned; dia2) [I-52 dia2], the values for the EC50 in the test on HL-60/R10 and in the test with HL-60 were 24 nM and 223 nM, respectively.

For `Cc1cc(Oc2ccccc2)ccc1N(C(=O)CCl)C(C(=O)N1CCN(C(=O)OC(C)(C)C)C(C(=O)NCc2ccccc2)C1)c1cccs1` (single isomer, unassigned; dia2) [I-53 dia2], the EC50 was 305 nM with HL-60/R10 and 547 nM with HL-60.

For the molecule `Cc1cc(CCC(C)(C)C)ccc1N(C(=O)CCl)C(C(=O)N1CCN[C@@H](C(C)C)C1)c1ccc(F)cc1` (stereo partly drawn) [Example I-23], the IC50 stood at 12 nM in the test with HL-60/R10 (HL-60, 72 h) and 559 nM in the test with HL-60 (HL-60, 72 h).

As to `Cc1cc(CCC(C)(C)C)ccc1N(C(=O)CCl)C(C(=O)N1C[C@@H](C)N[C@@H](C)C1)c1ccc(F)cc1` (stereo partly drawn) [Example I-24], the IC50 in the test on HL-60/R10 (HL-60, 72 h) was 15 nM; in the test with HL-60 (HL-60, 72 h), 626 nM.

With `CC1CN(C(=O)C(c2cccs2)N(C(=O)CCl)c2cccc(C(F)(F)F)c2)CC(C)N1C(=O)OC(C)(C)C` (stereo not drawn) [Example I-28], the IC50 in the test with HL-60/R10 (HL-60, 72 h) was determined as 206 nM; in the test on HL-60 (HL-60, 72 h), 623 nM.

For `Cc1cc(Oc2ccccc2)ccc1N(C(=O)CCl)C(C(=O)N1CCN2CCC[C@H]2C1)c1cccs1` (stereo partly drawn) [Example I-33], the EC50 with MCF-7/adr stood at 394 nM; with HL-60/R10 it was 157 nM.

Consider `C[C@@H]1CN(C(=O)[C@H](c2cccs2)N(C(=O)CCl)c2ccc(Oc3ccccc3)cc2)C[C@H](C)N1` [Example I-44], for which the EC50 with HL-60/R10 was 7 nM; with HL-60, 215 nM.

Consider `Cc1cc(Oc2ccccc2)ccc1N(C(=O)CCl)C(C(=O)N1CCNC(c2ccccc2)C1)c1cccs1` (stereo not drawn) [Example I-45], for which the IC50 in the test with HL-60/R10 (HL-60, 72 h) stood at 17 nM; in the test on HL-60 (HL-60, 72 h), 2140 nM.

As to `Cc1cc(Oc2ccccc2)ccc1N(C(=O)CCl)C(C(=O)N1CCNC(Cc2ccccc2)C1)c1cccs1` (stereo not drawn) [Example I-48], the IC50 with HL-60/R10 (HL-60, 72 h) was 10 nM; with HL-60 (HL-60, 72 h) it was 1990 nM.

Consider `Cc1cc(Cl)ccc1N(C(=O)CCl)C(C(=O)N1C[C@@H](C)N[C@@H](C)C1)c1cccs1` (stereo partly drawn) [Example I-49], for which the IC50 turned out to be 321 nM with HL-60/R10 (HL-60, 72 h) and 1170 nM with HL-60 (HL-60, 72 h).

`Cc1cc(Oc2ccccc2)ccc1N(C(=O)CCl)C(C(=O)N1CCNCC1)c1ccc(F)cc1` (stereo not drawn) [reference compound]: the IC50 was determined as 226 nM in the test on HL-60/R10 (HL-60, 72 h) and 1630 nM in the test on HL-60 (HL-60, 72 h).

On to `C[C@@H]1CNCCN1C(=O)C(c1cccs1)N(C(=O)CCl)c1ccc(Oc2ccccc2)cc1` (stereo partly drawn) [reference compound], for which the IC50 with HL-60/R10 (HL-60) amounted to 38 nM; in the test on HL-60 (HL-60), 311 nM.

For the molecule “tert-butyl ester of 4-[2-[(2-chloro-acetyl)-(4-phenoxy-phenyl)-amino]-2-(4-fluoro-phenyl)-acetyl]-(S)-2-isopropyl-piperazine-1-carboxylic acid [I-1 dia1]”, the EC50 in the test with MCF-7/adr came to 338 nM; with HL-60, 1800 nM.

Turning to “tert-butyl ester of 4-[-2-[(2-chloro-acetyl)-(4-phenoxy-phenyl)-amino]-2-(4-fluoro-phenyl)-acetyl]-(R)-2-isopropyl-piperazine-1-carboxylic acid [I-2 dia2]”, the EC50 with MCF-7/adr came out at 645 nM; in the test with HL-60/R10, 472 nM; in the test on HL-60, 2060 nM.
